Values after ≈ are worked out from the molar mass of the structure shown. Like-named read-outs stand apart in the source and are kept apart here. Marks after values point to notes of the source that are not given here.
Experiments:
[1] = system: human intestinal cells (Caco-2); assay: Caco-2 cytotoxicity test; type: cell-based; details: for Caco-2 cytotoxicity test (IC50 in g L^−1): Caco-2 human intestinal cells
Description: (§1) Toxicity was assessed on human intestinal cells (Caco-2), bacterial cells (Lumistox assays) and fish eggs cells. Mutagenicity was assessed through classical Ames test.
(§2) The toxicity of compound 4 has been measured on Caco-2 human cells as previously described, and compared with the toxicity of compound 1.

fish eggs cells = assay: Fish egg test; type: in vivo; details: for Fish egg test (IC50 in mg L^−1): in vivo
Description: as §1

[2] = system: bacterial cells (Lumistox assays); assay: Lumistox test (luminescence inhibition); type: cell-based
Description: as §1

Ames test: mutagenicity = type: cell-based; details: classical Ames test
Description: as §1

Caco-2 cytotoxicity test = type: cell-based, human; details: Caco-2 cells; Caco-2 human intestinal cells; read-out: Caco-2 cytotoxicity test (IC50 in g L^−1)
Description: as §1, §2

[3] = classical Ames test; published data; cited from earlier work

| SMILES | Caco-2 cytotoxicity test (IC50 in g L^−1) [1] | Fish egg test (IC50 in mg L^−1) (fish eggs cells) | Lumistox test % of luminescence inhibition at maximal OD ([2]; at maximal OD) | Ames test: mutagenicity (Ames test: mutagenicity) | also measured |
| --- | --- | --- | --- | --- | --- |
| Nc1ccc2cc(S(=O)(=O)[O-])cc(O)c2c1N=Nc1ccc(Cl)cc1C(F)(F)F.[Na+] [Acid Red 299] | >1 g/L | 250 to 500 mg/L | 50.2% | Positive | – |
| Nc1c(S(=O)(=O)O)cc(/N=N/c2c(S(=O)(=O)O)cc(NC3CCCCC3)c3c2C(=O)c2ccccc2C3=O)c2c1C(=O)c1ccccc1C2=O [Compound 1, 1-[(4-amino-9,10-dioxo-3-sulfo-9,10-dihydroanthracen-1-yl)diazenyl]-4-cyclohexylamino-9,10-dioxo-9,10-dihydroanthracene-2-sulfonic acid] | – | – | – | Negative | IC50 (Caco-2 cytotoxicity test): > 1000 µg/mL; toxicity (in words) ([1]; in the range tested, with regards to other molecules available on the market): low toxicity; IC50 (fish eggs cells; read-out: Fish egg test (IC50 in mg L^−1)): 294 µg/mL (≈ 411 µM); Lumistox test % of luminescence inhibition at maximal OD ([2]; up to a maximal optical density (OD) of 1800): 41.6** % |
| O=C1c2ccccc2C(=O)c2c(/N=N\c3cccc(S(=O)(=O)O)c3)c(S(=O)(=O)O)cc(NC3CCCCC3)c21 [Compound 4, 4-Cyclohexylamino-9,10-dioxo-1-(3-sulfo-phenylazo)-9,10-dihydro-anthracene-2-sulfonic acid] | – | – | – | – | toxicity less than the toxicity of compound 1 ([1]; Caco-2 human cells, FIG. 3, relative to compound 1): 30% |
| Nc1c(N=Nc2ccc(-c3ccc(N=Nc4cc(S(=O)(=O)[O-])c5ccccc5c4N)cc3)cc2)cc(S(=O)(=O)[O-])c2ccccc12.[Na+].[Na+] [Direct Red 28] | 0.3 ± 0.02 g/L | <30 mg/L | 3.4% | – | Ames test: mutagenicity [3]: Positive* |
| CCN(CCO)c1ccc(N=Nc2ccc([N+](=O)[O-])cc2)cc1 [Disperse Red 1] | >1 g/L | 250 to 500 mg/L | – | Negative | Lumistox test % of luminescence inhibition at maximal OD ([2]; saturated solution): 61.3*** % |
| O=C(Nc1cc(S(=O)(=O)[O-])cc2cc(S(=O)(=O)[O-])c(N=Nc3cc(Nc4nc(Cl)nc(Nc5ccc(S(=O)(=O)[O-])cc5)n4)ccc3S(=O)(=O)[O-])c(O)c12)c1ccccc1.[Na+].[Na+].[Na+].[Na+] [Reactive Red 4] | 0.7 ± 0.06 g/L | 500 to 1000 mg/L | 25.9% | Negative | – |
